Target: T1, Acetylcholinesterase (Rattus norvegicus, UniProt P37136)
T1 sequence (P37136 whole entry): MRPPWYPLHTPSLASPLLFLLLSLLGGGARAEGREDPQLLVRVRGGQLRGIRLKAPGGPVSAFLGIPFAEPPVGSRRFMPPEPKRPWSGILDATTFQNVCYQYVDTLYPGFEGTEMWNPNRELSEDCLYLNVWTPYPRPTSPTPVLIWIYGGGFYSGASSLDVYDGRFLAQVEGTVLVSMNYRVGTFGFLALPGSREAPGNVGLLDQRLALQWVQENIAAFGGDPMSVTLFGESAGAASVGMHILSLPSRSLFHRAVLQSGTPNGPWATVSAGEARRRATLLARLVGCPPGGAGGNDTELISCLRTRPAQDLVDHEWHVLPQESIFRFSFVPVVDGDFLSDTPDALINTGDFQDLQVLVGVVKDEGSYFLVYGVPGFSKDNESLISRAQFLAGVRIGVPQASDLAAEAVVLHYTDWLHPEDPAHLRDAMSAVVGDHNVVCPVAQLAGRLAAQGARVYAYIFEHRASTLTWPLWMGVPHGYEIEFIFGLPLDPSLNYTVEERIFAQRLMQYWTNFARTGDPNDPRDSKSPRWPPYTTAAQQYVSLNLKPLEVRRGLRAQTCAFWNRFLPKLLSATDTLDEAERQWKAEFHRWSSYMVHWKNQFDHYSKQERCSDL
Test: Inhibition of acetylcholinesterase from rat striatal tissue
Type: tissue-based, Striatum

`CC1=NC2CCCc3nc4ccccc4c(c32)N1` (stereo unspecified) was tested, and the IC50 was greater than 100 µM.
`CCCCNC1CCCc2nc3ccccc3c(N)c21` (stereo unspecified) gave an IC50 of 48.8 µM.
`COc1ccc(CNC2CCCc3nc4ccccc4c(N)c32)cc1OC` (stereo unspecified) showed an IC50 of 38.4 µM.
For `Nc1c2c(nc3ccccc13)CCCC2N1CCCC1` (stereo unspecified), the IC50 was 18 µM.
Work on `Nc1c2c(nc3ccccc13)CCCC2N1CCC(c2ccccc2)CC1` (stereo unspecified) yielded an IC50 greater than 100 µM.
With `COc1ccc(C2CCCc3nc4ccccc4c(N)c32)c(OC)c1` (stereo unspecified) the IC50 was 4.82 µM.
For `Nc1c2c(nc3ccccc13)CCCC2NCc1ccccc1` (stereo unspecified), the IC50 was 20.1 µM.
`COC1CCCc2nc3ccccc3c(N)c21` (stereo unspecified) gave an IC50 of 4.74 µM.
`Nc1c2c(nc3ccccc13)CCCC2N1CCN(c2ccccc2)CC1` (stereo unspecified) was tested, and the IC50 was greater than 100 µM.
Compound `Nc1c2c(nc3ccccc13)CCCC2Nn1cccc1` (stereo unspecified) has an IC50 of 8.16 µM.
`CN1CCN(C2CCCc3nc4ccccc4c(N)c32)CC1` (stereo unspecified) was tested, and the IC50 was greater than 100 µM.
Work on `Nc1c2c(nc3ccccc13)CCCC2N` (stereo unspecified) yielded an IC50 of 8.59 µM.
`CCCOC1CCCc2nc3ccccc3c(N)c21` (stereo unspecified) showed an IC50 of 0.193 µM.
`CCCNC1CCCc2nc3ccccc3c(N)c21` (stereo unspecified) was tested, and the IC50 was 12.5 µM.
For `c1ccc(C2=NC3CCCc4nc5ccccc5c(c43)N2)cc1` (stereo unspecified), the IC50 was greater than 100 µM.
`[N-]=[N+]=NC1CCCc2nc3ccccc3c(N)c21` (stereo unspecified) was tested, and the IC50 was 11.8 µM.
With `CCOC1CCCc2nc3ccccc3c(N)c21` (stereo unspecified) the IC50 was 0.298 µM.
`Nc1c2c(nc3ccccc13)CCCC2N1CCOCC1` (stereo unspecified) showed an IC50 greater than 100 µM.
`CCCCCC(=O)NC1CCCc2nc3ccccc3c(N)c21` (stereo unspecified) showed an IC50 of 51.8 µM.
Compound `CCNC1CCCc2nc3ccccc3c(N)c21` (stereo unspecified) has an IC50 of 4.79 µM.
`Nc1c2c(nc3ccccc13)CCCC2O` (stereo unspecified) [VELNACRINE] gave an IC50 of 3.64 µM.
`Nc1c2c(nc3ccccc13)CCCC2c1cccs1` (stereo unspecified) showed an IC50 of 0.49 µM.
Work on `CCCCOC1CCCc2nc3ccccc3c(N)c21` (stereo unspecified) yielded an IC50 of 1.9 µM.
`Nc1c2c(nc3ccccc13)CCCC2N1CCCCC1` (stereo unspecified) was tested, and the IC50 was 8.4 µM.
Compound `Nc1c2c(nc3ccccc13)CCCC2NCCc1ccccc1` (stereo unspecified) has an IC50 of 18.6 µM.
In the case of `CC(=O)NC1CCCc2nc3ccccc3c(N)c21` (stereo unspecified), the IC50 is reported as 64.9 µM.

Source: ChEMBL document CHEMBL1127167, “Synthesis and in vitro acetylcholinesterase inhibitory activity of some 1-substituted analogues of velnacrine” (Bioorg Med Chem Lett, 1993)
